According to patent publication US20250197376A1, “PYRAZINE AMIDE DERIVATIVES” (Novartis AG, priority 2022, published 2025):
pEC50: −log10 of the molar value.

These molecules were tested on 3D7 P. falciparum strain (assay: P. falciparum 3D7 parasite proliferation assay (SYBR Green)). Settings: Plasmodium falciparum, Erythrocyte; 3D7 P. falciparum infected human erythrocytes, 72 hours, SYBR Green fluorescence; read-out: Pf3D7 Activity.
Type: cell-based
Experimental: The following assay illustrates the invention without in any way limiting the scope of the invention. This parasite proliferation assay measures the increase in parasite DNA content using a DNA intercalating dye, SYBR Green®. 3D7 P. falciparum strain is grown in complete culturing media until parasitemia reaches 3% to 8% with O+ human erythrocytes. 20 μl of screening media is dispensed into 384 well assay plates. 50 nl of compounds of the invention (in DMSO), including antimalarial controls (mefloquine, pyrimethamine and artemisinin), are then transferred into the assay plates, as well as DMSO alone to serve as a negative control for inhibition. Then 30 μl of a suspension of a 3D7 P. falciparum infected erythrocytes in screening media is dispensed into the assay plates such that the final hematocrit is 2.5% with a final parasitemia of 0.3%. The plates are placed in a 37° C. incubator for 72 hours in a low oxygen environment containing 93% N2, 4% CO2, and 3% O2 gas mixture. 10 μl of lysis buffer (saponin, triton-X, EDTA) containing a 10× solution of SYBR Green […] in RPMI media is dispensed into the plates. The plates are lidded and kept at room temperature overnight for the lysis of the infected red blood cells. The fluorescence intensity is measured (excitation […], emission 530 nm) using the Envision™ system (Perkin Elmer). The percentage inhibition of 50%, EC50, is calculated for each compound.
For `CC(C)(N)CNC(=O)c1cncc(-c2[nH]c3ccccc3c2C(F)(F)F)n1` [Example 54, N-(2-amino-2-methylpropyl)-6-(3-(trifluoromethyl)-1H-indol-2-yl)pyrazine-2-carboxamide], the pEC50 was less than 7.00. In the case of `Cc1c(-c2cncc(C(=O)NCC(N)C3CC3)n2)[nH]c2ccccc12` (centres unmarked) [Example 102], the pEC50 was 7.00 to 8.00. `CC(C)(N)CNC(=O)c1cncc(-c2cc3cc(Cl)nc(Cl)c3[nH]2)n1` [Example 38, N-(2-amino-2-methylpropyl)-6-(5,7-dichloro-1H-pyrrolo[2,3-c]pyridin-2-yl)pyrazine-2-carboxamide] gave a pEC50 of less than 7.00. For `Cc1c(-c2cncc(C(=O)NCC(C)(C)N)n2)[nH]c2ccc(S(C)(=O)=O)cc12` [Example 75, N-(2-Amino-2-methylpropyl)-6-(3-methyl-5-(methylsulfonyl)-1H-indol-2-yl)pyrazine-2-carboxamide], the pEC50 was less than 7.00. In the case of `Cc1c(-c2cncc(C(=O)NCC(C)(C)N)n2)[nH]c2ccc(C(=O)NCC(C)(C)N)cc12` [Example 107, N-(2-amino-2-methylpropyl)-2-(6-((2-amino-2-methylpropyl)carbamoyl)pyrazin-2-yl)-3-methyl-1H-indole-5-carboxamide], the pEC50 was less than 7.00. For `CCc1c(-c2cncc(C(=O)NCC(C)(C)N)n2)[nH]c2ccccc12` [Example 50, N-(2-amino-2-methylpropyl)-6-(3-ethyl-1H-indol-2-yl)pyrazine-2-carboxamide], the pEC50 was 7.00 to 8.00. `Cc1c(-c2cncc(C(=O)NCC(C)(C)N)n2)[nH]c2ccc(Cl)cc12` [Example 12, N-(2-amino-2-methylpropyl)-6-(5-chloro-3-methyl-1H-indol-2-yl)pyrazine-2-carboxamide] showed a pEC50 of 7.00 to 8.00. With `Cc1c(-c2cncc(C(=O)NCC(C)(C)N)n2)[nH]c2cc(Cl)ccc12` [Example 7, N-(2-amino-2-methylpropyl)-6-(6-chloro-3-methyl-1H-indol-2-yl)pyrazine-2-carboxamide] the pEC50 was greater than 8.00. `Cc1c(-c2cncc(C(=O)NCC(N)CO)n2)[nH]c2ccccc12` (centres unmarked) [Example 94, N-(2-amino-3-hydroxypropyl)-6-(3-methyl-1H-indol-2-yl)pyrazine-2-carboxamide] was tested, and the pEC50 was less than 7.00. For `Cc1c(-c2cncc(C(=O)NCC3(N)CCOCC3)n2)[nH]c2ccccc12` [Example 89, N-((4-aminotetrahydro-2H-pyran-4-yl)methyl)-6-(3-methyl-1H-indol-2-yl)pyrazine-2-carboxamide], the pEC50 was 7.00 to 8.00. Work on `COc1ccc2[nH]c(-c3cncc(C(=O)NCC(C)(C)N)n3)cc2c1` [Example 32, N-(2-amino-2-methylpropyl)-6-(5-methoxy-1H-indol-2-yl)pyrazine-2-carboxamide] yielded a pEC50 of less than 7.00. `CC(C)(N)CNC(=O)c1cncc(-c2cc3cc(Cl)c(F)cc3[nH]2)n1` [Example 17, N-(2-amino-2-methylpropyl)-6-(5-chloro-6-fluoro-1H-indol-2-yl)pyrazine-2-carboxamide] showed a pEC50 of 7.00 to 8.00. With `CC(C)c1c(-c2cncc(C(=O)NCC(C)(C)N)n2)[nH]c2ccccc12` [Example 52, N-(2-amino-2-methylpropyl)-6-(3-isopropyl-1H-indol-2-yl)pyrazine-2-carboxamide] the pEC50 was 7.00 to 8.00. `COc1cccc2[nH]c(-c3cncc(C(=O)NCC(C)(C)N)n3)cc12` [Example 30, N-(2-amino-2-methylpropyl)-6-(4-methoxy-1H-indol-2-yl)pyrazine-2-carboxamide] showed a pEC50 of less than 7.00. With `Cc1c(-c2cncc(C(=O)NCCCN)n2)[nH]c2ccc(OC(F)(F)F)cc12` [Example 63, N-(3-aminopropyl)-6-(3-methyl-5-(trifluoromethoxy)-1H-indol-2-yl)pyrazine-2-carboxamide] the pEC50 was 7.00 to 8.00. In the case of `Cc1ccc2c(C)c(-c3cncc(C(=O)NCC(C)(C)N)n3)[nH]c2c1` [Example 45, N-(2-Amino-2-methylpropyl)-6-(3,6-dimethyl-1H-indol-2-yl)pyrazine-2-carboxamide], the pEC50 was greater than 8.00. `CC(C)(N)CNC(=O)c1cncc(-c2cc3cc(OCc4ccccc4)ccc3[nH]2)n1` [Example 22, N-(2-amino-2-methylpropyl)-6-(5-(benzyloxy)-1H-indol-2-yl)pyrazine-2-carboxamide] was tested, and the pEC50 was 7.00 to 8.00. Molecule `Cc1c(-c2cncc(C(=O)NC34CC(N)(C3)C4)n2)[nH]c2ccccc12` [Example 87, N-(3-aminobicyclo[1.1.1]pentan-1-yl)-6-(3-methyl-1H-indol-2-yl)pyrazine-2-carboxamide] has a pEC50 of 7.00 to 8.00. `Cc1c(-c2cncc(C(=O)NCC(C)(C)N)n2)[nH]c2c1CCC(C)(C)C2` [Example 76, N-(2-Amino-2-methylpropyl)-6-(3,6,6-trimethyl-4,5,6,7-tetrahydro-1H-indol-2-yl)pyrazine-2-carboxamide] gave a pEC50 of 7.00 to 8.00. `Cc1ccc2[nH]c(-c3cncc(C(=O)NCC(C)(C)N)n3)c(C)c2c1` [Example 15, N-(2-amino-2-methylpropyl)-6-(3,5-dimethyl-1H-indol-2-yl)pyrazine-2-carboxamide] was tested, and the pEC50 was 7.00 to 8.00. Molecule `CC(C)(N)CNC(=O)c1cncc(-c2cc3cc(Cl)ccc3[nH]2)n1` [Example 19, N-(2-amino-2-methylpropyl)-6-(5-chloro-1H-indol-2-yl)pyrazine-2-carboxamide] has a pEC50 of 7.00 to 8.00. `CC(C)(N)CNC(=O)c1cncc(-c2cc3cc(F)cc(F)c3[nH]2)n1` [Example 24, N-(2-amino-2-methylpropyl)-6-(5,7-difluoro-1H-indol-2-yl)pyrazine-2-carboxamide] was tested, and the pEC50 was 7.00 to 8.00. With `CC(C)(N)CNC(=O)c1cncc(-c2cc3ccnc(Cl)c3[nH]2)n1` [Example 42, N-(2-amino-2-methylpropyl)-6-(7-chloro-1H-pyrrolo[2,3-c]pyridin-2-yl)pyrazine-2-carboxamide] the pEC50 was less than 7.00. For `Cc1c(-c2cncc(C(=O)NCC3(N)CC3)n2)[nH]c2cc(Cl)c(F)cc12` [Example 81, N-((1-aminocyclopropyl)methyl)-6-(6-chloro-5-fluoro-3-methyl-1H-indol-2-yl)pyrazine-2-carboxamide], the pEC50 was 7.00 to 8.00. For `CC(C)(N)CNC(=O)c1cncc(-c2cc3cc(F)c(F)cc3[nH]2)n1` [Example 20, N-(2-amino-2-methylpropyl)-6-(5,6-difluoro-1H-indol-2-yl)pyrazine-2-carboxamide], the pEC50 was 7.00 to 8.00. With `CC(C)(N)CNC(=O)c1cncc(-c2[nH]c3ccccc3c2C#N)n1` [Example 57, N-(2-amino-2-methylpropyl)-6-(3-cyano-1H-indol-2-yl)pyrazine-2-carboxamide] the pEC50 was less than 7.00. Molecule `Cc1c(-c2cncc(C(=O)NCCN)n2)[nH]c2ccccc12` [Example 86, N-(2-aminoethyl)-6-(3-methyl-1H-indol-2-yl)pyrazine-2-carboxamide] has a pEC50 of 7.00 to 8.00. `Cc1c(-c2cncc(C(=O)NCC(C)(C)N)n2)[nH]c2ccc(OC(F)(F)F)cc12` [Example 5, N-(2-amino-2-methylpropyl)-6-(3-methyl-5-(trifluoromethoxy)-1H-indol-2-yl)pyrazine-2-carboxamide] gave a pEC50 greater than 8.00. `CC(C)(N)CNC(=O)c1cncc(-c2cc3cc(F)c(Cl)nc3[nH]2)n1` [Example 33, N-(2-amino-2-methylpropyl)-6-(6-chloro-5-fluoro-1H-pyrrolo[2,3-b]pyridin-2-yl)pyrazine-2-carboxamide] was tested, and the pEC50 was less than 7.00. For `Cc1c(-c2cncc(C(=O)NCCC(C)(C)N)n2)[nH]c2ccc(OC(F)(F)F)cc12` [Example 59, N-(3-amino-3-methylbutyl)-6-(3-methyl-5-(trifluoromethoxy)-1H-indol-2-yl)pyrazine-2-carboxamide], the pEC50 was greater than 8.00. Molecule `Cc1cc2[nH]c(-c3cncc(C(=O)NCC(C)(C)N)n3)c(C)c2s1` [Example 73, N-(2-amino-2-methylpropyl)-6-(2,6-dimethyl-4H-thieno[3,2-b]pyrrol-5-yl)pyrazine-2-carboxamide] has a pEC50 of 7.00 to 8.00. `CC(C)(N)CNC(=O)c1cncc(-c2cc3cc(C#N)ccc3[nH]2)n1` [Example 104] showed a pEC50 of less than 7.00. Work on `Cc1c(-c2cncc(C(=O)NCCCN)n2)[nH]c2ccccc12` [Example 90, N-(3-aminopropyl)-6-(3-methyl-1H-indol-2-yl)pyrazine-2-carboxamide] yielded a pEC50 of less than 7.00. `Cc1c(-c2cncc(C(=O)NCC(C)(C)N)n2)[nH]c2ccccc12` [Example 83, N-(2-amino-2-methylpropyl)-6-(3-methyl-1H-indol-2-yl)pyrazine-2-carboxamide] was tested, and the pEC50 was 7.00 to 8.00. `Cc1ccc2cc(-c3cncc(C(=O)NCC(C)(C)N)n3)[nH]c2c1` [Example 23, N-(2-amino-2-methylpropyl)-6-(6-methyl-1H-indol-2-yl)pyrazine-2-carboxamide] gave a pEC50 of 7.00 to 8.00. For `Cc1c(-c2cncc(C(=O)N[C@H]3CCC[C@@H]3N)n2)[nH]c2cc(Cl)c(F)cc12` [Example 77, N-((1S,2S)-2-Aminocyclopentyl)-6-(6-chloro-5-fluoro-3-methyl-1H-indol-2-yl)pyrazine-2-carboxamide], the pEC50 was greater than 8.00. In the case of `CC(C)(N)CNC(=O)c1cncc(-c2cc3cc(C(F)(F)F)ccc3[nH]2)n1` [Example 18, N-(2-amino-2-methylpropyl)-6-(5-(trifluoromethyl)-1H-indol-2-yl)pyrazine-2-carboxamide], the pEC50 was 7.00 to 8.00. In the case of `CC(C)(N)CNC(=O)c1cncc(-c2cc3ccc(F)cc3[nH]2)n1` [Example 21, N-(2-amino-2-methylpropyl)-6-(6-fluoro-1H-indol-2-yl)pyrazine-2-carboxamide], the pEC50 was 7.00 to 8.00.
